Patent US20060199862A1, “Method for enhancing cognitive function” (priority 2005, published 2006)
Read-outs that look alike come from different tables or passages of the source.

Key:
[1] = test system: rats with chronic cerebral ischemia induced by chronic bilateral ligation of common carotid arteries; conditions: for Latency, s Post-shock / Latency, s Pre-shock: test on day 8 since ligation, mean±SD, n=8; for Latency, s Post-shock: 24 hours after the shock
Method: The effect of the compound of the formula (I) on cognitive function was assessed in rats with chronic cerebral ischemia induced by chronic bilateral ligation of common carotid arteries. The ligation was made in Wistar male rats 3 hours prior the first injection of the compound of the formula (I) or saline. Rats were injected i.p. with 1 mg/kg or 50 mg/kg the compound of the formula (I) or saline (control) for 7 days singly a day. Passive avoidance step-through paradigm test (short-term learning) was made on day 8th since the ligation. The pre-shock and post-shock latency time was used as an index of cognitive impairments. […] Data are presented in table 1 as the latency time mean±SD (n=8).

[2] = test system: rats with cognitive impairments induced by amyloid injection (A-beta 25-35 in nucleus basalis magnocellularis); conditions: for Number of visits Repeated (to the same arm) / Number of visits Total (visited arms): Y-maze 5 min, next day after last injection, mean±SD, n=8
Method: Beta-amyloid 25-35 (A-beta 25-35) was injected in nucleus basalis magnocellularis (NBM) of rats to induce model of cognitive impairments relevant to human Alzheimer's disease as described. Harkany T et al., Behav Brain Res. 1998 90(2):133-45. Harkany T et al., Prog Neuropsychopharmacol Biol Psychiatry. 1999 23(6):963-1008.
A-beta 25-35 was administered bilaterally into NBM of male Wistar rats in dose of 2 μg per each side. Since 16th day of A-beta 25-35 injection, rats were injected i.p. with 1 mg/kg or 50 mg/kg the compound of the formula (I) or saline (control) for 7 days singly a day. The effect of the compound of the formula (I) on cognitive functions was tested in a model of spontaneous alteration in Y-maze at next day from the day of the last injection. It is a suitable model for assessing memory impairments. Total number of visited arms and number of repeated visits to the same arm for 5 min was counted. […] Data are presented in table 2 as the number of visits mean±SD (n=8).

[3] = 1 mg/kg i.p. once a day for 7 days
[4] = 50 mg/kg i.p. once a day for 7 days
[5] = 1 mg/kg i.p. once a day for 7 days from day 16 after A-beta 25-35
[6] = 50 mg/kg i.p. once a day for 7 days from day 16 after A-beta 25-35

C[N+](C)(C)CCO.C[N+](C)(C)CCO.O=C([O-])CCC(=O)[O-] [Compound of the formula (I), bis[2-hydroxyethyl-N,N,N-trimethylaminium]butanedioate]
Latency, s Post-shock [1, 3]: 99.3 ± 24.5 s | Latency, s Pre-shock [1, 3]: 13.5 ± 4.3 s | Latency, s Post-shock [1, 4]: 53.3 ± 16.3 s | Latency, s Pre-shock [1, 4]: 27.7 ± 13.1 s | Effect on cognitive function as compared to the control ([1]; cognitive impairments induced by chronic cerebral ischemia, vs saline control): significantly enhanced cognitive function | Number of visits Repeated (to the same arm) [2, 5]: 0.65 ± 0.24 | Number of visits Total (visited arms) [2, 5]: 3.00 ± 0.41 | Number of visits Repeated (to the same arm) [2, 6]: 0.75 ± 0.29 | Number of visits Total (visited arms) [2, 6]: 2.55 ± 0.33 | Effect on cognitive function (memory) as compared to the control ([2]; cognitive function impaired by amyloid toxicity, vs saline control): significantly enhanced cognitive function (memory)
